{"source": "patent US20080089851A1", "about": "“Brown Algae Cell Lyophilisate, Method For The Obtention Thereof” (BIOTECHMARINE, priority 2005, published 2008)", "tested_on": "reconstructed CORNEA Skinethic (keratinocytes of the TR 146 line)", "experiment": "Mucous tolerance: cytotoxicity (MTT colour) on reconstructed CORNEA Skinethic", "type": "cell-based, human", "parameters": "key to TOXICITY: NI = not irritant; I = irritant; VI = very irritant", "conditions": "for Colour of both cultures: MTT", "experimental": "1. —Experimental Protocol\nKeratinocytes of the TR 146 line, spontaneously transformed, amplified, by cell culture in a defined modified MCDB 153 medium were used.\nWhen cultured on the interface air/liquid in a defined medium, these human keratinocytes form a multilayered epithelium without the cornea layer similar to the human cornea.\nThe product to be investigated, in this case the BB product according to Example 3, is applied at a rate of 30 μL onto the surface of eight equivalent cultures using a micro-pipette. These cultures are subsequently incubated at 37° C., 5% of CO2, for 10 minutes, 1 hour, 3 hours and 24 hours, at a rate of two cultures by incubation period.\nNegative (buffered saline solution) and positive (SDS 0.5% and 1%) controls are prepared sterile and applied in the same way on two cultures, respectively.\nThese cultures are subsequently incubated at 37° C., 5% of CO2, for 1 hour and 24 hours, at a rate of two cultures by incubation period.\n2. —Assessment of the Cellular Viability\nThe cellular viability is further measured qualitatively after labelling with a vital dye. The MTT system measures the mitochondrial dehydrogenase activity of living cells. The key component is the 3-[4,5-dimethylthiazol-2-yl]-2,5-diphenyl tetrazolium bromide or MTT.\nThe salt solutions buffered with MTT, in the absence of phenol red, are yellow coloured. The mitochondrial deshydrogenases of living cells cut the tetrazolium cycle, thus inducing formation of purple formazan crystals, insoluble in aqueous solutions.\nThe crystals formed by the viable cells are trapped in the polycarbonate filters which serve as support to epithelial cultures. The cultures turn to a uniform intense blue/purple colour when they are viable, but remain white/yellow in the case of cell mortality.\nThe results are compared to negative and positive control substances.\n0.15 ml of culture medium containing 10% vol/vol of MTT solution are pipetted under each filter/culture support. After an incubation of 30 min at room temperature, the colour of the different cultures is observed.\nNegative control cultures should show an intense blue/purple colour, proof of the viability of mucosa after being in contact for 24 hours.\nPositive control cultures should show a white colour, proof of the cellular mortality as from the 1st hour of contact."}
{"compound": "CCCCCCCCCCCCOS(=O)(=O)[O-].[Na+]", "note": "[SDS]", "values": [{"measurement": "TOXICITY", "setting": "SDS 0.5%", "result": "I"}, {"measurement": "Colour of both cultures", "setting": "SDS 0.5%, 10 min", "result": "blue"}, {"measurement": "Colour of both cultures", "setting": "SDS 0.5%, 1 h", "result": "white"}, {"measurement": "Colour of both cultures", "setting": "SDS 0.5%, 3 h", "result": "white"}, {"measurement": "TOXICITY", "setting": "SDS 1%", "result": "VI"}, {"measurement": "Colour of both cultures", "setting": "SDS 1%, 10 min", "result": "white"}, {"measurement": "Colour of both cultures", "setting": "SDS 1%, 1 h", "result": "white"}]}
